Assay results from patent US20130045952A1, “ABA Receptor Agonists for Increased Plant Stress Resistance” (Van Andel Research Institute, priority 2011, published 2013).

Biological target: T1, PYL2 A93F (Arabidopsis thaliana, UniProt O80992, A93F)
T1 construct: PYL2 (residues 14-188), and HAB1 (residues 172-511) were prepared as recombinant proteins in E. coli; made in house; host or cells: E. coli (stated for PYL2 in general)
Assay: PP2C binding and phosphatase assays of mutant PYL2 A93F
Type: biochemical
Excerpt: The closest distance between the pyridine ring of pyrabactin and the LPA gating residues is 4.8 Å-7.0 Å when the LPA loop assumes the ABA-bound closed conformation, but is 11-13 Å when the LPA gate is in open conformation. In contrast, the distance of the naphthalene double ring of pyrabactin or the cyclohexene ring of ABA to the three side chains of the LPA gate in the PYL1 structure is 3.4-4.6 Å, a range for strong Van der Waals interactions, thus helping to keep the LPA gate in the closed conformation. […] To validate this hypothesis, we changed the alanine in the LPA loop to a larger residue. […] As expected from structural modeling, replacement of the gate residue A93 with the bulky phenylalanine ring also abrogated ABA to promote PYL2 activation.
Mutant proteins were expressed as H6GST-fusion proteins and purified by glutathione sepharose chromatography. Protein-protein interactions were determined by luminescence proximity AlphaScreen assay. Biotinylated PP2C proteins for the luminescence proximity assay were generated by in vivo biotinylation of avitag-PP2C fusion proteins. PP2C phosphatase activity was measured by phosphate release from a SnRK2.6 phosphoprotein.
Site-directed mutagenesis was carried out using the QuickChange method (Stratagene). Mutations and all plasmid constructs were confirmed by sequencing.

T1 sequence (O80992 14-188 A93F): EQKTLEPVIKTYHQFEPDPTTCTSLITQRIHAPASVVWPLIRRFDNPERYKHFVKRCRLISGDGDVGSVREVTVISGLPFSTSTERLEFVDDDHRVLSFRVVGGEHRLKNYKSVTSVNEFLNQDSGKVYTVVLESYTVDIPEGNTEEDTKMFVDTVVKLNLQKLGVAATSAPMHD

(+)-Abscisic Acid was tested, and the “Activation of mutant PYL2 A93F receptor” value was “abrogated”.
